Marks after values point to notes of the source that are not given here.
How the values were obtained:
[1] = Quenching of the ABTS radical cation; details: for radical trapping compared with Trolox (in words): method of Example 6
Method: The iron chelators were tested for their ability to quench the radical cation formed from 2,2′-azinobis(3-ethylbenzothiazoline-6-sulfonic acid) (ABTS) by the method of Re et al. in Free Radic. Biol. Med. 26, 1231-1237 (1999). Briefly, a stock solution of ABTS radical cation was generated by mixing ABTS (10 mM, 2.10 mL) with K2S2O8 (8.17 mM, 0.90 mL) in H2O and […] deep blue-green ABTS radical cation was diluted in sufficient sodium phosphate (10 mM, pH 7.4) to give an A734 of about 0.900. Test compounds were added to a final concentration ranging from 1.25 to 15 μM, and the decrease in A734 was read after 1, 2, 4 and 6 min. The reaction was largely complete by 1 min, but the data presented are based on a 6-min reaction time.
In this assay, a fairly stable radical cation, ABTS^+, was examined, and Trolox, an analog of vitamin E, was used as a positive control. Briefly, the procedure involved generating the blue-green chromophore by the reaction of ABTS with K2S2O8. The radical has absorption maxima at λ=415, 645, 734, and 815 nm. The change in absorbance at 734 nm was noted 6 min after addition of the chelator of interest at various concentrations, and the slope of the ΔA734 vs. ligand concentration line was calculated.
The iron chelators were tested for their ability to quench the radical cation formed from 2,2′-azinobis(3-ethylbenzothiazoline-6-sulfonic acid) (ABTS) by a published method (Re, R., et al., Free Radical Biol. Med. 26:1231-1237 (1999). Briefly, a stock solution of ABTS radical cation was generated by mixing ABTS (10 mM, 2.10 mL) with K2S2O8 (8.17 mM, 0.90 mL) in H2O and allowing the solution to sit in the dark at room temperature for 18 hours. This stock solution of deep blue-green ABTS radical cation was diluted in sufficient sodium phosphate (10 mM, pH 7.4) to give an A734 of about 0.900. Test compounds were added to a final concentration ranging from 1.25 to 15 μM, and the decrease in A734 was read after 1, 2, 4 and 6 min. The reaction was largely complete by 1 min, but the data presented are based on a 6-min. reaction time.
This radical cation decolorization assay utilizes the pre-formed radical monocation of 2,2′-azinobis(3-ethylbenzothiazoline-6-sulfonic acid) (ABTS) and has been used to evaluate the antioxidant capacity of a large number of compounds and mixtures. Briefly, the change in absorbance of the blue-green chromophore was recorded after the addition of the chelator of interest at each of the different concentrations, and the slope of the ΔA734 vs. ligand concentration line was calculated. The positive control for this reaction was Trolox, an analogue of vitamin E. The decrease in A734 as a function of ligand concentration is the comparitor among the five compounds evaluated. Trolox, L1, DFO, (S)-4′-(HO)-DADMDFT and BDU (Table 3). All four of the iron chelators performed better than Trolox; DFO≈BDU>(S)-4′-(HO)-DADMDFT>L1>Trolox. Thus, all of these ligands could be expected to serve as excellent radical scavengers.

[2] = test system: acetic acid-induced colitis; experiment: Acetic acid-induced colitis in rats, densitometric image analysis of colonic damage; assay type: in vivo; details: for Damage (%): 650 μmol kg^−1 intracolonically 30 min before 4% acetic acid, mean ± standard deviation; for protection against acetic acid-induced colonic damage (in words): intracolonic, image analysis and MPO assay
Method: (§1) The ligands were administered to the rats intracolonically as a suspension or solution in distilled water (2 mL) at a dose of 650 μmol kg^−1. The drug solutions were made fresh for each experiment. ROWASA®, the pharmaceutical preparation which contains 5-ASA (2 mL, 66.7 mg mL^−1) was given at a dose of 2318 μmol kg^−1. Control rats received distilled water (2 mL), administered intracolonically.
(§2) Animal care and experimental procedures were approved by the Institutional Animal Care and Use Committee. Colitis was induced by a modification of published methods. Briefly, the rats were anesthetized with sodium pentobarbital, 55 mg kg^−1 intraperitoneally. The abdomen was shaved and prepared for surgery. A midline incision was made, and the cecum and proximal colon were exteriorized. A reversible suture was placed at the junction of the cecum and proximal colon. The colon was rinsed with saline (10 mL), and the fluid and intestinal contents were gently expressed out the rectum. A gum-based rectal plug was inserted. The compound of interest, or distilled water in the control animals (2 mL), was injected intracolonically just distal to the ligature. The cecum and proximal colon were returned to the abdominal cavity; the compound was allowed to remain in the gut for 30 min. Then, the cecum and proximal colon were reexteriorized. The rectal plug was removed, and the drug was gently expressed out of the colon. Acetic acid (4%, 2 mL) was injected into the proximal colon over a 15-20-second time period. The acid was allowed to remain in the gut until one minute had passed (i.e., 40-45 seconds after the end of the acid administration). The no acid control rats received distilled water (2 mL), which was administered in the same manner as was the acetic acid. Air (10 mL) was then injected into the proximal colon to expel the acid or water. The cecal/proximal colon ligature was removed, the gut was returned to the abdominal cavity, and the incisions were closed. The animals were allowed to recover overnight and were sacrificed 24 hr later. The entire length of the colon was removed and assessed for damage both densitometrically and biochemically.
Gross damage was quantitated using Photoshop-based image analysis (version 5.0, Adobe Systems, Mountain View, Calif., USA) on an Apple iMac computer. The Magic Wand tool in the Select menu of Photoshop was used to place the cursor on an area of obvious damage. The tolerance level of the Magic Wand tool was set at 30. The damaged areas were automatically selected by using the Similar command in the Select menu. Then, the Eyedropper tool was used to determine the range of the damage in the highlighted areas. Individual colon images were copied to a blank Photoshop page. The Magic Wand tool, with a tolerance set to 100, was used to select all of the pixels in the colon sample. Then, the Histogram tool, which generates a graph in which each vertical line represents the number of pixels associated with a brightness level, was selected in the Image menu. The Red channel was then selected; the darker (damaged areas) appear on the left side of the histogram and the lighter (normal) areas are on the right side. The cursor was then placed on the histogram, the color range determined in an earlier step was selected, and the number of pixels encompassing that range and the percent damage were quantified automatically.
Two means were employed to assess the damage to the colon in the presence and absence of ligand, computer-based image analysis and colonic MPO measurement. The densitometric method removes much of the subjectivity involved in the simple scoring approaches. A digital image of the prepared colonic tissue is taken, and a clearly damaged segment is highlighted on the screen. Once the computer identifies all other segments of the intestine with the same or greater damage, a pixel number is generated; this number makes it possible to calculate the percentage of damaged intestine.

[3] = test system: Myeloperoxidase (MPO) activity in colonic tissue; experiment: Myeloperoxidase (MPO) assay in colonic tissue of rats with acetic acid-induced colitis; assay type: in vivo; details: 650 μmol kg^−1 intracolonically 30 min before 4% acetic acid, mean ± standard deviation
Method: as §1, §2
The activity of MPO was measured in colonic tissue by a modification of the method of Krawisz et al. in Gastroenterology 87, 1344-1350 (1984). Each excised colon was homogenized in 9 volumes of homogenization buffer (0.5% hexadecyltrimethylammonium bromide (HDTMA) in 50 mM sodium acetate, pH 6.0); this homogenate was centrifuged at 1200 g for 20 min at 4° C. A sample of the supernatant (1.8 mL) was transferred into a microcentrifuge tube and stored frozen at −20° C. for up to one week. Prior to assay, the thawed aliquot was centrifuged at about 10,000 g for 15 minutes at 4° C. The final supernatant (33 μL) was added to a solution of o-dianisidine HCl (0.17 mg mL^−1 in 50 mM sodium acetate, pH 6.0, made fresh daily and filtered immediately before use) (950 μL), the mixture was vortexed, and the peroxidase reaction was initiated by the addition of H2O2 to 50 mM sodium acetate, pH 6.0, made fresh daily (16.7 μL). The A470 at room temperature (ca. 23° C.) was read at 15-second intervals for 2 min. The rates were assessed graphically and are presented as change in milliabsorbance units (ΔmAU)/min per g tissue. Under these conditions, 0.1 “Unit” of purified human leukocyte myeloperoxidase (Sigma M-6908) produced a ΔA470 of about 400 mAU/min.
The biochemical measurement involves measuring the level of MPO in a sample of homogenate of the whole rat colon. When the colon is damaged by the acetic acid, there is an extravasation of neutrophils. The extent of this infiltration can serve as a quantitative marker for tissue damage. Although other leukocytes, such as eosinophils and monocytes, also contribute to the inflammatory response, their contribution is small; the majority of the cells recruited during the acute inflammatory response are neutrophils. […]

[4] = Quenching of the ABTS radical cation; details: Table 5; 6-min reaction, initial OD 1.000
[5] = Prevention of iron-mediated oxidation of ascorbate (ascorbate-mediated reduction of Fe(III)); details: ascorbate 100 μM, FeCl3 30 μM, pH 7.4, ligand/Fe ratios 0-3, 40 min
Method: (§3) The iron chelators were tested for their ability to diminish the iron-mediated oxidation of ascorbate by the method of Dean and Nicholson (Free Radical Res. 20, 83-101 (1994)). Briefly, a solution of freshly prepared ascorbate (100 μM) in sodium phosphate buffer (5 mM, pH 7.4) was incubated in the presence of FeCl3 (30 μM) and chelator (ligand/Fe ratios varied from 0-3) for 40 min. The A265 was read at 10 and 40 min; the ΔA265 in the presence of ligand was compared to that in its absence.
The role of chelators in either inhibition or promotion of the Fenton reaction is related to their capacity to prevent Fe(III) from being reduced to Fe(II). Fe(II) is required for the reduction of H2O2 to HO. and HO^−. The assay involves spectrophotometrically monitoring the disappearance of ascorbate at pH 7.4 in the presence of FeCl3 and chelator at several ligand/Fe ratios. Under these conditions, ascorbate is oxidized to an L-ascorbyl radical anion. This anion then disproportionates to dehydroascorbic acid and ascorbate.
as §3, with “chelators nitrilotriacetic acid (NTA), 1,2-dimethyl-3-hydroxypyridin-4-one (L1), desferrioxamine B (DFO), (S)-4′-(HO)-DADMDFT, and (S,S)-1,11-Bis[5-(4-carboxyl-4,5-dihydro-1,3-thiazol-2-yl)-2,4-dihydroxyphenyl]-4,8-dioxaundecane (BDU)” for “chelators”, “Nicholson, Free” for “Nicholson (Free”, “20:” for “20,”, “(1994).” for “(1994)).”
The measurement examines the disappearance of ascorbate. It is known that DFO, a hydroxamate chelator that forms a 1:1 complex with Fe(III) at a formation constant of approximately 10^31 M^−1, prevents ascorbate-mediated reduction of Fe(III); it serves as a positive control in the present study. Both NTA and L1 promote ascorbate-mediated reduction of Fe(III) and serve as negative controls.

[6] = Table 1, A734, six-minute reaction, pH 7.4, 1.25 to 15 μM

## CN(O)C(=O)[C@@]1(C)CSC(c2ccc(O)cc2O)=N1 [4′-(HO)-DADFT-NMH]
[1]; [6]
  Slope × 10^3 OD units/μM (ABTS radical cation quenching): −141.4 × 10^3 OD units/μM
[2]
  Damage (%): 46 ± 23%
  protection against acetic acid-induced colonic damage (in words): moderately effective
[3]
  MPO activity: 41021 ± 35525 mAU min^−1g of colonic tissue^−1

## Cc1c(C)c2c(c(C)c1O)CCC(C)(C(=O)O)O2 (centres unmarked) [Trolox, reference compound]
[1]; [6]
  Slope × 10^3 OD units/μM (ABTS radical cation quenching): −36.6 × 10^3 OD units/μM
[1]; Table 3, A734, 6-min reaction, values marked b are the inventors' unpublished results
  Slope × 10^3 OD units/μM (ABTS radical cation quenching): −37^b × 10^3 OD units/μM
[4]
  Slope × 10^3 OD units/μM (ABTS radical cation quenching): −37 × 10^3 OD units/μM

## Cc1ccc(O)c(C2=NC(C(=O)O)CC2)c1 (centres unmarked) [PCA, 3,4-dihydro-5-(2-hydroxy-5-methylphenyl)-2H-pyrrole-2-carboxylic acid]
[1]; [6]
  Slope × 10^3 OD units/μM (ABTS radical cation quenching): −3.3 × 10^3 OD units/μM
[2]
  Damage (%): 44 ± 11%
[3]
  MPO activity: 29942 ± 11255 mAU min^−1g of colonic tissue^−1

## CN(O)C(=O)[C@H]1CSC(c2ccc(O)cc2O)=N1 [4′-(HO)-DADMDFT-NMH]
[1]; [6]
  Slope × 10^3 OD units/μM (ABTS radical cation quenching): −135.5 × 10^3 OD units/μM
[2]
  Damage (%): 39 ± 11%
[3]
  MPO activity: 18426 ± 20930 mAU min^−1g of colonic tissue^−1

## COc1ccc(C2=N[C@@H](C(=O)O)CS2)c(O)c1 [4′-(CH3O)-DADMDFT, 4′-methoxydesazadesmethyldesferrithiocin]
[5]
  effect on ascorbate-mediated reduction of Fe(III) (in words): slowed Fe(III) reduction considerably
[1]
  radical trapping compared with Trolox (in words): as effective as Trolox
[4]
  Slope × 10^3 OD units/μM (ABTS radical cation quenching): −33 × 10^3 OD units/μM

## O=C(O)C1CSC(c2ncccc2O)=N1 (centres unmarked) [DMDFT, desmethyldesferrithiocin]
[1]; [6]
  Slope × 10^3 OD units/μM (ABTS radical cation quenching): −1.3 × 10^3 OD units/μM
[2]
  Damage (%): 61 ± 15%
[3]
  MPO activity: 39229 ± 27109 mAU min^−1g of colonic tissue^−1

## CN(O)C(=O)C1CSC(c2ncccc2O)=N1 (centres unmarked) [DMDFT-NMH, desmethyldesferrithiocin-N-methyl-hydroxamate]
[1]; [6]
  Slope × 10^3 OD units/μM (ABTS radical cation quenching): −47.4 × 10^3 OD units/μM
[2]
  Damage (%): 22 ± 17%
  protection against acetic acid-induced colonic damage (in words): most effective
[3]
  MPO activity: 14406 ± 8683 mAU min^−1g of colonic tissue^−1

## COc1ccc(C2=NC(C)(C(=O)O)CS2)c(O)c1 (centres unmarked) [4′-(CH3O)-DADFT, 4′-methoxydesazadesferrithiocin]
[5]
  effect on ascorbate-mediated reduction of Fe(III) (in words): slowed Fe(III) reduction considerably
[1]
  radical trapping compared with Trolox (in words): as effective as Trolox
[4]
  Slope × 10^3 OD units/μM (ABTS radical cation quenching): −36 × 10^3 OD units/μM

— patent US20050234113A1, “Antioxidant and radical scavenging activity of synthetic analogs of desferrithiocin” (University of Florida Research Foundation, Inc., priority 2002, published 2005)
